The test system of test [1] is OATP1A1. Description: Expression level of OATP1A1 in rat liver by UHPLC-MS/MS. Type of test: in vivo. To be noted: UDCA group, ANIT-treated rats; mean ± S.D.
Description: (§4) Male Sprague Dawley rats (230 ± 20 g, 6–8 weeks of age) were purchased from B&K Laboratory Animal, Corp. Ltd. (Shanghai, China) and fed in the Laboratory Animal Center of Shanghai University of Traditional Chinese Medicine. All rats were allowed to acclimatize for 3 days before experimentation. The rats were randomly divided into six groups (n = 5 for each group). […] The rats in groups 4, 5, and 6 were intragastrically administered YCHD every 24 h for 10 consecutive days. The rats in group 3 were orally administered UDCA at a dose of 100 mg/kg every 24 h for 10 consecutive days, which is well-documented to treat induced liver injury and cholestasis ([Chen et al., 2016]; [Cao et al., 2017]). Moreover, groups 1 and 2 were intragastrically treated with physiological saline (0.9%) at a dose of 1 mL/100 g. […] At the end of the experiment, all rats were euthanized by CO2 inhalation. The serum samples were stored at -70°C until analysis, and liver samples were isolated and stored at -70°C for further analysis, whereas the central part of the right large lobe of the liver was used for histological examination. […]
The subject of test [2] is MDR1. Nature of the test: Expression level of MDR1 in rat liver by UHPLC-MS/MS. Format: in vivo. The procedure: (§1) Male Sprague Dawley rats (230 ± 20 g, 6–8 weeks of age) were purchased from B&K Laboratory Animal, Corp. Ltd. (Shanghai, China) and fed in the Laboratory Animal Center of Shanghai University of Traditional Chinese Medicine. All rats were allowed to acclimatize for 3 days before experimentation. The rats were randomly divided into six groups (n = 5 for each group). […] Moreover, groups 1 and 2 were intragastrically treated with physiological saline (0.9%) at a dose of 1 mL/100 g. […] At the end of the experiment, all rats were euthanized by CO2 inhalation. The serum samples were stored at -70°C until analysis, and liver samples were isolated and stored at -70°C for further analysis, whereas the central part of the right large lobe of the liver was used for histological examination.
(§2) Biotransformation of xenobiotics and endogenous compounds is a crucial step in the absorption and elimination of potentially harmful substances from the human body, a process that could be affected by the levels of pharmacokinetic enzymes and transporter proteins. […]
(§3) Total membrane protein was isolated (in triplicate) from liver tissue according to the Native Membrane Protein Extraction Kit protocol. Subsequently, protein concentrations were determined by applying the BCA Protein Assay Kit. […]

For test [3], the system named is OATP1A2. Nature of the test: Expression level of OATP1A2 in rat liver by UHPLC-MS/MS. Type of test: in vivo.
Description: as §4
Test [4] deals with OCT1. Description: Expression level of OCT1 in rat liver by UHPLC-MS/MS. Format: in vivo. As for the experimental part:
as §1, §2, §3

Test [5] has as its system ANIT-induced cholestatic liver injury. Description: Liver histopathological examination (H&E) in ANIT-induced cholestatic rats. Conditions: UDCA + ANIT 50 mg/kg. Format: in vivo, rat. The procedure: as §1
In test [6] the test system is NTCP. Description: Expression level of NTCP in rat liver by UHPLC-MS/MS. Format: in vivo.
Description: as §4
The test system of test [7] is ANIT-induced cholestatic liver injury. Description: Serum biochemistry (ALT, AST, TBIL, DBIL, TBA) in ANIT-induced cholestatic liver injury. Format: in vivo, rat. The procedure:
Ltd. (Shanghai, China) and fed in the Laboratory Animal Center of Shanghai University of Traditional Chinese Medicine. […] The rats were randomly divided into six groups (n = 5 for each group). […] [Cao et al., 2017]). […] Before and 24 h after modeling, retro-orbital blood samples were collected in a coagulation tube, and they were then centrifuged at 4°C for 10 min (4000 rpm) to obtain the serum for the assay of ALT, AST, TBIL, DBIL, and TBA. At the end of the experiment, all rats were euthanized by CO2 inhalation. The serum samples were stored at -70°C until analysis, and liver samples were isolated and stored at -70°C for further analysis, whereas the central part of the right large lobe of the liver was used for histological examination.  FIGURE 2 The scheme of the animal experimental design. […] UDCA, positive control group treated with ursodeoxycholic acid (UDCA) (100 mg/kg, […].); […] A closed IV catheter system (Becton Dickinson, United States) was applied to cannulate the bile duct, and the bile specimens were collected into tubes at 2 h intervals for 6 h. The collected serum samples were maintained at room temperature to dissolve. The serum levels of ALT, AST, TBIL, DBIL, and TBA were then determined using a chemistry analyzer system (HITACHI 7080, Japan).

Test [8] has as its system BSEP. Nature of the test: Expression level of BSEP in rat liver by UHPLC-MS/MS. Format: in vivo. The procedure:
as §1, §2, §3

The test system of test [9] is OATP1A4. Nature of the test: Expression level of OATP1A4 in rat liver by UHPLC-MS/MS. Type of test: in vivo.
Description: as §4
The mark [10] stands for this setting: UDCA group, ANIT-treated rats, mean ± S.D.
Where [11] appears, read: UDCA-treated cholestatic rats, liver, as compared with the control group, p < 0.05.
The mark [12] stands for this setting: UDCA 100 mg/kg i.g. daily 10 days, ANIT 50 mg/kg on day 8, serum.

From paper PMC5962729 (Frontiers in Pharmacology, 2018) come the findings set out here.

In the case of `C[C@H](CCC(=O)O)[C@H]1CC[C@H]2[C@@H]3[C@@H](O)C[C@@H]4C[C@H](O)CC[C@]4(C)[C@H]3CC[C@]12C` [UDCA, Ursodeoxycholic acid], the “Oatp1a1 expression level in rat liver” value in test [1] is listed as 3.42±1.23 fmol/μg protein. The “Mdr1 expression level in rat liver” value in [2] (setting [10]) was 0.67±0.32 fmol/μg protein. Further, the “MDR1 level, fold higher” value in [2] (setting [11]) was determined as 2.4 fold. For the same molecule, the “Oatp1a2 expression level in rat liver” value in test [3] (setting [10]) is on record as 1.27±0.18 fmol/μg protein. Also, the “OATP1A2 level, fold higher” value in test [3] (setting [11]) is recorded as 1.5 fold. Moreover, the “Oct1 expression level in rat liver” value in [4] (setting [10]) turned out to be 2.22±0.59 fmol/μg protein. Also, in test [4] (setting [11]), the “OCT1 level, fold higher” value amounted to 2.1 fold. The “liver histopathology (H&E)” value in [5] was “hepatocyte hydropic degeneration with less neutrophil infiltration and a milder degree of bile duct epithelial damage”. The “Ntcp expression level in rat liver” value in test [6] (setting [10]) stood at 4.22±1.51 fmol/μg protein. Further, the “NTCP level, fold higher” value in [6] (setting [11]) was 2.2 fold. In test [7] (setting [12]), the ALT amounted to 400.6±200.0 IU/L, the AST is listed as 611.8±257.2 IU/L, the DBIL was 21.2 ± 9.0 µmol/L and the TBA was determined as 428.1 ± 55.9 µmol/L. The molecule also displayed a TBIL in [7] (setting [12]) of 28.2 ± 19.0 µmol/L. Moreover, the “serum TBA decreased to (printed), compared with the control group (printed)” value in test [7] (UDCA 100 mg/kg, ANIT-treated rats, p < 0.001) is reported as 30.9%. Besides, the “serum DBIL decreased to (printed), compared with the control group (printed)” value in test [7] (UDCA 100 mg/kg, ANIT-treated rats, p < 0.01) was found to be 40.9%. For the same molecule, the “Bsep expression level in rat liver” value in test [8] (setting [10]) amounted to 18.1±2.56 fmol/μg protein. In test [8] (setting [11]), the “BSEP level, fold higher” value is reported as 1.2 fold. Further, in test [9] (setting [10]), the “Oatp1a4 expression level in rat liver” value is listed as 0.49±0.11 fmol/μg protein. Moreover, the “OATP1A4 expression upregulated, fold” value in [9] (UDCA-treated cholestatic rats, liver, not statistically significant) stood at 1.3 fold.
